From ChEMBL document CHEMBL3885881, “DrugMatrix”

Organism: Rattus norvegicus
Experiment: DrugMatrix - Regimen: Daily Repeat
Type: toxicity, organism-based, Sprague-Dawley
Set-up: regimen Daily Repeat, gender Male, age 6-8 weeks
Conditions: in vivo, sc, 0 mg/kg, route mini-PUMP - SUBCUTANEOUS, dose level Control, vehicle 100 % SALINE; for ABSOLUTE BASOPHIL / ABSOLUTE EOSINOPHIL / ABSOLUTE LYMPHOCYTE / ABSOLUTE MONOCYTE / ABSOLUTE SEGMENTED NEUTROPHIL / BASOPHIL / EOSINOPHIL / ERYTHROCYTE COUNT / HEMOGLOBIN / LEUKOCYTE COUNT / LYMPHOCYTE / MEAN CORPUSCULAR HEMOGLOBIN / MEAN CORPUSCULAR HEMOGLOBIN CONCENTRATION / MEAN CORPUSCULAR VOLUME / NUCLEATED RED BLOOD CELLS / PLATELET COUNT: tissue Blood
[1] = 72 h, tissue Plasma, time 3 day
[2] = 120 h, tissue Plasma, time 5 day

Question: For CNCC(O)c1ccc(O)c(O)c1 (stereo unspecified) [RACEPINEPHRINE], which “ABSOLUTE BASOPHIL” value (72 h, time 3 day) is on record?
Answer: 0 CELLS/uL

Question: And the “ABSOLUTE EOSINOPHIL” value (72 h, time 3 day)?
Answer: 77.17 CELLS/uL

Question: What about the “ABSOLUTE LYMPHOCYTE” value (72 h, time 3 day) of the same compound?
Answer: 14293.83 CELLS/uL

Question: What about the “ABSOLUTE MONOCYTE” value (72 h, time 3 day) of the same compound?
Answer: 354 CELLS/uL

Question: What about the “ABSOLUTE SEGMENTED NEUTROPHIL” value (72 h, time 3 day) of the same compound?
Answer: 1658.33 CELLS/uL

Question: And the BASOPHIL (72 h, time 3 day)?
Answer: 0%

Question: What about the EOSINOPHIL (72 h, time 3 day) of the same compound?
Answer: 0.5%

Question: What about the “ERYTHROCYTE COUNT” value (72 h, time 3 day) of the same compound?
Answer: 6.27 x10E6/uL

Question: What about the HEMOGLOBIN (72 h, time 3 day) of the same compound?
Answer: 13.4 G/DL

Question: What about the “LEUKOCYTE COUNT” value (72 h, time 3 day) of the same compound?
Answer: 16.38 x10E3/uL

Question: And the LYMPHOCYTE (72 h, time 3 day)?
Answer: 87.17%

Question: And the “MEAN CORPUSCULAR HEMOGLOBIN” value (72 h, time 3 day)?
Answer: 21.42 pg

Question: And the “MEAN CORPUSCULAR HEMOGLOBIN CONCENTRATION” value (72 h, time 3 day)?
Answer: 36.27 G/DL

Question: And the “MEAN CORPUSCULAR VOLUME” value (72 h, time 3 day)?
Answer: 59.03 fL

Question: And the “NUCLEATED RED BLOOD CELLS” value (72 h, time 3 day)?
Answer: 0 /100WBC

Question: What about the “PLATELET COUNT” value (72 h, time 3 day) of the same compound?
Answer: 904.67 x10E3/uL

Question: And the “ALANINE AMINOTRANSFERASE” value [1]?
Answer: 48.33 u/L

Question: And the ALBUMIN [1]?
Answer: 3.82 G/DL

Question: And the “ALKALINE PHOSPHATASE” value [1]?
Answer: 282.33 u/L

Question: And the “ASPARTATE AMINOTRANSFERASE” value [1]?
Answer: 86.83 u/L

Question: What about the “BLOOD UREA NITROGEN” value [1] of the same compound?
Answer: 20.17 mg/dL

Question: What about the “CARBON DIOXIDE” value [1] of the same compound?
Answer: 34.67 mmol/L

Question: And the CHLORIDE [1]?
Answer: 102 MEQ/L

Question: What about the CHOLESTEROL [1] of the same compound?
Answer: 71.5 mg/dL

Question: What about the CREATININE [1] of the same compound?
Answer: 0.2 mg/dL

Question: And the “LACTATE DEHYDROGENASE” value [1]?
Answer: 159 u/L

Question: What about the LIPASE [1] of the same compound?
Answer: 9 u/L

Question: What about the PHOSPHORUS [1] of the same compound?
Answer: 10.12 mg/dL

Question: And the POTASSIUM [1]?
Answer: 5.92 MEQ/L

Question: What about the SODIUM [1] of the same compound?
Answer: 147.8 MEQ/L

Question: And the “TOTAL BILIRUBIN” value [1]?
Answer: 0.2 mg/dL

Question: What about the “TOTAL PROTEIN” value [1] of the same compound?
Answer: 6.05 G/DL

Question: What about the “ABSOLUTE BASOPHIL” value (120 h, time 5 day) of the same compound?
Answer: 0 CELLS/uL

Question: And the “ABSOLUTE EOSINOPHIL” value (120 h, time 5 day)?
Answer: 0 CELLS/uL

Question: What about the “ABSOLUTE LYMPHOCYTE” value (120 h, time 5 day) of the same compound?
Answer: 14257.33 CELLS/uL

Question: What about the “ABSOLUTE MONOCYTE” value (120 h, time 5 day) of the same compound?
Answer: 326 CELLS/uL

Question: What about the “ABSOLUTE SEGMENTED NEUTROPHIL” value (120 h, time 5 day) of the same compound?
Answer: 3216.67 CELLS/uL

Question: What about the BASOPHIL (120 h, time 5 day) of the same compound?
Answer: 0%

Question: And the EOSINOPHIL (120 h, time 5 day)?
Answer: 0%

Question: And the “ERYTHROCYTE COUNT” value (120 h, time 5 day)?
Answer: 6.11 x10E6/uL

Question: What about the HEMOGLOBIN (120 h, time 5 day) of the same compound?
Answer: 13.18 G/DL

Question: And the “LEUKOCYTE COUNT” value (120 h, time 5 day)?
Answer: 17.8 x10E3/uL

Question: What about the LYMPHOCYTE (120 h, time 5 day) of the same compound?
Answer: 80.5%

Question: What about the “MEAN CORPUSCULAR HEMOGLOBIN” value (120 h, time 5 day) of the same compound?
Answer: 21.62 pg

Question: What about the “MEAN CORPUSCULAR HEMOGLOBIN CONCENTRATION” value (120 h, time 5 day) of the same compound?
Answer: 36.42 G/DL

Question: And the “MEAN CORPUSCULAR VOLUME” value (120 h, time 5 day)?
Answer: 59.37 fL

Question: And the “NUCLEATED RED BLOOD CELLS” value (120 h, time 5 day)?
Answer: 0 /100WBC

Question: What about the “PLATELET COUNT” value (120 h, time 5 day) of the same compound?
Answer: 1311 x10E3/uL

Question: And the “ALANINE AMINOTRANSFERASE” value [2]?
Answer: 47 u/L

Question: And the ALBUMIN [2]?
Answer: 3.83 G/DL

Question: What about the “ALKALINE PHOSPHATASE” value [2] of the same compound?
Answer: 260.33 u/L

Question: What about the “ASPARTATE AMINOTRANSFERASE” value [2] of the same compound?
Answer: 76.17 u/L

Question: And the “BLOOD UREA NITROGEN” value [2]?
Answer: 14.67 mg/dL

Question: And the “CARBON DIOXIDE” value [2]?
Answer: 31.33 mmol/L

Question: What about the CHLORIDE [2] of the same compound?
Answer: 101.17 MEQ/L

Question: What about the CHOLESTEROL [2] of the same compound?
Answer: 75 mg/dL

Question: What about the “LACTATE DEHYDROGENASE” value [2] of the same compound?
Answer: 147.33 u/L

Question: What about the LIPASE [2] of the same compound?
Answer: 9.33 u/L

Question: And the PHOSPHORUS [2]?
Answer: 10.97 mg/dL

Question: And the POTASSIUM [2]?
Answer: 6 MEQ/L

Question: And the SODIUM [2]?
Answer: 145.52 MEQ/L

Question: And the “TOTAL PROTEIN” value [2]?
Answer: 5.83 G/DL

Question: What about the “ABSOLUTE BASOPHIL” value ([…], time 14 day) of the same compound?
Answer: 0 CELLS/uL

Question: What about the “ABSOLUTE EOSINOPHIL” value ([…], time 14 day) of the same compound?
Answer: 64.5 CELLS/uL

Question: What about the “ABSOLUTE LYMPHOCYTE” value ([…], time 14 day) of the same compound?
Answer: 12507.83 CELLS/uL

Question: And the “ABSOLUTE MONOCYTE” value ([…], time 14 day)?
Answer: 380.33 CELLS/uL

Question: What about the “ABSOLUTE SEGMENTED NEUTROPHIL” value ([…], time 14 day) of the same compound?
Answer: 2414 CELLS/uL

Question: And the BASOPHIL ([…], time 14 day)?
Answer: 0%

Question: What about the EOSINOPHIL ([…], time 14 day) of the same compound?
Answer: 0.5%

Question: And the “ERYTHROCYTE COUNT” value ([…], time 14 day)?
Answer: 6.1 x10E6/uL

Question: What about the HEMOGLOBIN ([…], time 14 day) of the same compound?
Answer: 12.88 G/DL

Question: What about the “LEUKOCYTE COUNT” value ([…], time 14 day) of the same compound?
Answer: 15.37 x10E3/uL

Question: What about the LYMPHOCYTE ([…], time 14 day) of the same compound?
Answer: 80.83%

Question: And the “MEAN CORPUSCULAR HEMOGLOBIN” value ([…], time 14 day)?
Answer: 21.18 pg

Question: And the “MEAN CORPUSCULAR HEMOGLOBIN CONCENTRATION” value ([…], time 14 day)?
Answer: 36.43 G/DL

Question: What about the “MEAN CORPUSCULAR VOLUME” value ([…], time 14 day) of the same compound?
Answer: 58.17 fL
